Each compound was assayed against hENPP2 (UniProtKB/SwissProt Q13822) (Homo sapiens (Human), UniProt Q13822) (assay: hENPP2 biochemical assay, LPC as substrate). Details: LPC (palmitoyl 16:0) as substrate.
Experimental: The principle of the assay consists in quantifying the released choline with an enzymatic method using choline oxidase and peroxidase. Choline oxydation by choline oxydase releases betaine and peroxide. The latter is quantified in presence of HRP that converts the peroxide detection agent TOOS and 4-aminoantipyrine into quinoneimine dye. The appearance of quinoneimine dye is measured spectrophotometrically at 555 nm and is proportional to the amount of choline released by ENPP2. Inhibition of ENPP2 will result in a decrease of the signal.
Compound IC50 values are determined in a hENPP2 (UniProtKB/SwissProt Sequence ref Q13822) biochemical assay using LPC as substrate.
The enzyme is diluted in 50 mM Tris-HCl pH 8.5, 500 mM NaCl, 5 mM KCl, 10 mM CaCl2, 0.1% fatty acid free BSA in a total volume of 10 μL. the reaction is started by the addition of 10 μL of 150 μM LPC (palmitoyl 16:0) diluted in the same buffer as described above and the mixture is incubated at 37° C. for 30 min. The reaction is terminated and choline quantified by the addition of a 25 μL of a mixture containing 0.6 U/mL of choline oxidase, 0.6 U/mL of peroxydase, 1.8 mM TOOS, 1.2 mM amino-antipyrine, 20 mM EGTA (stop-developer solution) diluted in the buffer described above. […] is read on the Envision after an incubation of 30 min at room temperature (Excitation 555 nm, excitation light=70%).
`CCc1nc2ccc(N3CCN(CC(=O)N4CC(CO)C4)CC3)cn2c1N(C)c1nc(-c2ccc(F)cc2)c(C#N)s1` [Compound 139, 2-((2-ethyl-6-(4-(2-(3-(hydroxymethyl)azetidin-1-yl)-2-oxoethyl)piperazin-1-yl)imidazo[1,2-a]pyridin-3-yl)(methyl)amino)-4-(4-fluorophenyl) thiazole-5-carbonitrile] gave an IC50 of 0.01 to 100 nM. Work on `CCc1nc2ccc(C3CCN(CC(=O)N(C)CC#N)CC3)cn2c1N(C)c1nc(-c2ccc(F)cc2)cs1` [Compound 121, N-(cyanomethyl)-2-(4-(2-ethyl-3-((4-(4-fluorophenyl)thiazol-2-yl)(methyl)amino)imidazo[1,2-a]pyridin-6-yl)piperidin-1-yl)-N-methylacetamide] yielded an IC50 of 500 to 1000 nM. `CCc1nc2ccc(N3CCN(C(=O)C4(N)CC4)CC3)cn2c1N(C)c1nc(-c2ccc(F)cc2)cs1` [Compound 202, (1-aminocyclopropyl)(4-(2-ethyl-3-((4-(4-fluorophenyl)thiazol-2-yl)(methyl)amino)imidazo[1,2-a]pyridin-6-yl)piperazin-1-yl)methanone] was tested, and the IC50 was > 1000 nM. Compound `CCc1nc2ccc(N3CCN(CC(=O)N4CC(F)(F)C4)CC3)cn2c1N(C)c1nc(-c2ccc(F)cc2)cs1` [Compound 29, 1-(3,3-difluoroazetidin-1-yl)-2-(4-(2-ethyl-3-((4-(4-fluorophenyl)thiazol-2-yl)(methyl)amino)-imidazo[1,2-a]pyridin-6-yl)piperazin-1-yl)ethanone] has an IC50 of 100 to 500 nM. With `CCc1nc2ccc(N3CCN(C(=O)C4CCCN4C(=O)OC(C)(C)C)CC3)cn2c1N(C)c1nc(-c2ccc(F)cc2)cs1` (stereo not drawn) [Compound 44, tert-butyl 2-(4-(2-ethyl-3-((4-(4-fluorophenyl)thiazol-2-yl)(methyl)amino)imidazo[1,2-a]pyridin-6-yl)piperazine-1-carbonyl)pyrrolidine-1-carboxylate] the IC50 was > 1000 nM. For `CCc1nc2ccc(C3CCN(S(C)(=O)=O)CC3)cn2c1N(C)c1nc(-c2ccc(F)cc2C#N)c(C)s1` [Compound 97, 2-(2-((2-ethyl-6-(1-(methylsulfonyl)piperidin-4-yl)imidazo [1,2-a]pyridin-3-yl)(methyl)amino)-5-methylthiazol-4-yl)-5-fluorobenzonitrile], the IC50 was 100 to 500 nM. In the case of `CCc1nc2ccc(C3=CCN(S(C)(=O)=O)CC3)cn2c1N(C)c1nc(-c2ccc(F)c(F)c2)cs1` [Compound 73, 4-(3,4-difluorophenyl)-N-(2-ethyl-6-(1-(methylsulfonyl)-1,2,3,6-tetrahydropyridin-4-yl)imidazo[1,2-a]pyridin-3-yl)-N-methylthiazol-2-amine], the IC50 is reported as > 1000 nM. `CCc1nc2ccc(C3CCN(C(=O)CN4CC(F)(F)C4)CC3)cn2c1N(C)c1nc(-c2ccc(F)cc2)cs1` [Compound 131] showed an IC50 of 100 to 500 nM. Compound `CCc1nc2ccc(N3CCN(CC(=O)N4CC(CO)C4)CC3)cn2c1N(C)c1nc(-c2ccc(F)cc2)c(CO)s1` [Compound 146, 2-(4-(2-ethyl-3-((4-(4-fluorophenyl)-5-(hydroxymethyl)thiazol-2-yl)(methyl)amino)imidazo[1,2-a]pyridin-6-yl)piperazin-1-yl)-1-(3-(hydroxymethyl)azetidin-1-yl)ethanone] has an IC50 of 500 to 1000 nM. Work on `CCc1nc2ccc(C3CCN(S(C)(=O)=O)CC3)cn2c1N(C)c1nc(-c2ccc(F)cc2CO)cs1` [Compound 107, (2-(2-((2-ethyl-6-(1-(methylsulfonyl)piperidin-4-yl)imidazo[1,2-a]pyridin-3-yl)(methyl)amino)thiazol-4-yl)-5-fluorophenyl)methanol] yielded an IC50 of 500 to 1000 nM. `CCc1nc2ccc(C3CCN(CC(=O)N(C)CCO)CC3)cn2c1N(C)c1nc(-c2ccc(F)cc2)cs1` [Compound 119, 2-(4-(2-ethyl-3-((4-(4-fluorophenyl)thiazol-2-yl)(methyl)amino)imidazo[1,2-a]pyridin-6-yl)piperidin-1-yl)-N-(2-hydroxyethyl)-N-methylacetamide] showed an IC50 of 500 to 1000 nM. `CCc1nc2ccc(N3CCN(CC(=O)N4CCCC4)CC3)cn2c1N(C)c1nc(-c2ccc(F)cc2)cs1` [Compound 31, 2-(4-(2-ethyl-3-((4-(4-fluorophenyl)thiazol-2-yl)(methyl)amino)imidazo[1,2-a]pyridin-6-yl)piperazin-1-yl)-1-(pyrrolidin-1-yl)ethanone] showed an IC50 of 0.01 to 100 nM. For `CCc1nc2ccc(C3CCN(C(=O)CN(C)C)CC3)cn2c1N(C)c1nc(-c2ccc(F)cc2)cs1` [Compound 129, 2-(dimethylamino)-1-(4-(2-ethyl-3-((4-(4-fluorophenyl)thiazol-2-yl)(methyl)amino)imidazo[1,2-a]pyridin-6-yl)piperidin-1-yl)ethanone], the IC50 was 100 to 500 nM. In the case of `CCc1nc2ccc(C3CCN(S(C)(=O)=O)CC3)cn2c1N(C)c1nc(-c2ccc(F)cc2)c(C(=O)OC)s1` [Compound 104, methyl 2-((2-ethyl-6-(1-(methylsulfonyl)piperidin-4-yl)imidazo [1,2-a]pyridin-3-yl)(methyl)amino)-4-(4-fluorophenyl)thiazole-5-carboxylate], the IC50 is reported as > 1000 nM. `CCc1nc2ccc(N3CCN(CC(=O)N4CC(CO)C4)CC3)cn2c1N(C)c1nc(-c2ccc(F)cc2)cs1` [Compound 34, 2-(4-(2-ethyl-3-((4-(4-fluorophenyl)thiazol-2-yl)(methyl)amino)imidazo[1,2-a]pyridin-6-yl)piperazin-1-yl)-1-(3-(hydroxymethyl)azetidin-1-yl)ethanone] showed an IC50 of 100 to 500 nM. `CCc1nc2ccc(C3CCN(C(=O)CNC)CC3)cn2c1N(C)c1nc(-c2ccc(F)cc2)cs1` [Compound 127, 1-(4-(2-ethyl-3-((4-(4-fluorophenyl)thiazol-2-yl)(methyl)amino)imidazo[1,2-a]pyridin-6-yl)piperidin-1-yl)-2-(methylamino)ethanone] gave an IC50 of 500 to 1000 nM. `CCc1nc2ccc(N3CC(NCC(=O)N4CC(O)C4)C3)cn2c1N(C)c1nc(-c2ccc(F)cc2)cs1` [Compound 178, 2-(1-(2-ethyl-3-((4-(4-fluorophenyl)thiazol-2-yl)(methyl)amino)imidazo[1,2-a]pyridin-6-yl)azetidin-3-ylamino)-1-(3-hydroxyazetidin-1-yl)ethanone] showed an IC50 of 100 to 500 nM. In the case of `CCc1nc2ccc(C3CCN(CC(=O)NCCCO)CC3)cn2c1N(C)c1nc(-c2ccc(F)cc2)cs1` [Compound 123, 2-(4-(2-ethyl-3-((4-(4-fluorophenyl)thiazol-2-yl)(methyl)amino)imidazo[1,2-a]pyridin-6-yl)piperidin-1-yl)-N-(3-hydroxypropyl)acetamide], the IC50 is reported as > 1000 nM. With `CCOC(=O)C(C)N1CCN(c2ccc3nc(CC)c(N(C)c4nc(-c5ccc(F)cc5)cs4)n3c2)CC1` (stereo not drawn) [Compound 37, ethyl 2-(4-(2-ethyl-3-((4-(4-fluorophenyl)thiazol-2-yl)(methyl)amino)imidazo[1,2-a]pyridin-6-yl)piperazin-1-yl)propionoate] the IC50 was > 1000 nM. For `[2H]C([2H])([2H])N(c1nc(-c2ccc(F)cc2)cs1)c1c(CC)nc2ccc(C3CCN(S(C)(=O)=O)CC3)cn12` [Compound 102, 4-(4-fluorophenyl)-N-(2-ethyl-6-(1-(methylsulfonyl)piperidin-4-yl)imidazo [1,2-a]pyridin-3-yl)-N-(d3-methyl)thiazol-2-amine], the IC50 was > 1000 nM. `CCc1nc2ccc(N3CCN(CC(N)=O)CC3)cn2c1N(C)c1nc(-c2ccc(F)cc2)cs1` [Compound 33, 2-(4-(2-ethyl-3-((4-(4-fluorophenyl)thiazol-2-yl)(methyl)amino)imidazo[1,2-a]pyridin-6-yl)piperazin-1-yl)acetamide] gave an IC50 of 500 to 1000 nM.
